According to PubChem BioAssay (NCI):
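Dose response: 5 concentrations. Exposure: 48 h. Format: 96-well plates. Endpoint: linear interpolation; highest concentration if not reached. GI50 = concentration required for 50% inhibition of growth. The concentration for full growth arrest is given as TGI.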

Columns and labels:
Experiment in all cases: NCI-60 cell line screen, 48 h
A498 renal = test system: A498 renal
A549 NSCLC = test system: A549 NSCLC
BT-549 breast = test system: BT-549 breast
CAKI-1 renal = test system: CAKI-1 renal
MALME-3M melanoma = test system: MALME-3M melanoma
MCF7 breast = test system: MCF7 breast
MDA-MB-231 breast = test system: MDA-MB-231 breast
OVCAR-3 ovarian = test system: OVCAR-3 ovarian
RPMI-8226 leukemia = test system: RPMI-8226 leukemia
SK-MEL-28 melanoma = test system: SK-MEL-28 melanoma

SMILES	GI50 (A498 renal)	TGI (A498 renal)	GI50 (A549 NSCLC)	TGI (A549 NSCLC)	GI50 (BT-549 breast)	TGI (BT-549 breast)	GI50 (CAKI-1 renal)	TGI (CAKI-1 renal)	GI50 (MALME-3M melanoma)	TGI (MALME-3M melanoma)	GI50 (MCF7 breast)	TGI (MCF7 breast)	GI50 (MDA-MB-231 breast)	TGI (MDA-MB-231 breast)	GI50 (OVCAR-3 ovarian)	TGI (OVCAR-3 ovarian)	GI50 (RPMI-8226 leukemia)	TGI (RPMI-8226 leukemia)	GI50 (SK-MEL-28 melanoma)	TGI (SK-MEL-28 melanoma)
COc1ccc(/C=C/C(=O)c2ccc(Nc3nc(Nc4ccc(F)cc4)nc(Nc4ccc(F)cc4)n3)cc2)cc1	11.8 µM	28.2 µM	10.1 µM	34 µM	14 µM	36.4 µM	38.3 µM	> 100 µM	8.94 µM	46.6 µM	5.59 µM	34.3 µM	35.3 µM	> 100 µM	26.7 µM	> 100 µM	6.66 µM	> 100 µM	56.8 µM	> 100 µM
Cn1cccc1-c1cc(-c2ccccc2)nc(N)c1C#N	36.8 µM	> 100 µM	> 100 µM	> 100 µM	67.5 µM	> 100 µM	> 100 µM	> 100 µM	> 100 µM	> 100 µM	> 100 µM	> 100 µM	> 82 µM	> 100 µM	> 67.7 µM	> 100 µM	55.9 µM	> 100 µM	> 100 µM	> 100 µM
O=C1C(OC(=O)c2ccccc2)=C(c2ccc(O)cc2)C(=O)C(OC(=O)c2ccccc2)=C1c1ccc(O)cc1		> 100 µM		> 100 µM		> 100 µM		> 100 µM		> 100 µM		> 100 µM		> 100 µM		> 100 µM		> 100 µM		> 100 µM
Cc1c2ccccc2c(C)n2c1nc1cc(Cl)c(Cl)cc12	> 100 µM	> 100 µM	> 100 µM	> 100 µM	> 100 µM	> 100 µM	15.1 µM	> 100 µM	> 100 µM		1.09 µM	> 100 µM	72.5 µM	> 100 µM	18.6 µM		18.4 µM	> 100 µM	> 100 µM	> 100 µM
C[C@H]1CCC2C(OC(=O)[C@@H]2CN(C)C)[C@]2(C)C(=O)C=CC12O (stereo partly drawn)		31.2 µM		72.8 µM		25.2 µM		24.2 µM		16.7 µM		24.5 µM		25.4 µM		15 µM		16.2 µM		8.35 µM
O=C1/C(=C/c2ccc(O)cc2)Oc2ccccc21		> 100 µM		> 100 µM		> 100 µM		> 100 µM		> 100 µM		> 100 µM		> 100 µM		> 100 µM		> 100 µM		> 100 µM
Cc1nc2sc(C(=O)Nc3ccccc3)c(N)c2cc1C(=O)c1ccccc1	0.216 µM	3.72 µM	0.853 µM	> 50 µM	1.89 µM	> 50 µM	3.29 µM	> 50 µM	5.5 µM	> 50 µM	1.73 µM	> 50 µM	3.04 µM	> 50 µM	1.91 µM	6.19 µM	1.86 µM	> 50 µM	8.82 µM	> 50 µM
